# Assays:
# Format in all cases: binding
# [1] = system: double-stranded oligo(dA)-oligo(dT); assay: Affinity selection and amplification of salicylaldimine library on double-stranded DNA affinity column; conditions: for retention on the affinity column in the presence of zinc: 0.5 mM each of 8-13, with 26 MM ZnCl2, normalized to values in the absence of zinc, two-hour incubation
# Source text: A serious potential problem with the selection and amplification of a single compound from an equilibrating mixture of complexes is that of identifying the desired high-affinity species. First, if the selection is not complete for a single compound, the separation and identification of a potentially large number of complexes presents a significant analytical challenge. Furthermore, since reequilibration of complexes can occur once the affinity resin is removed, it might be expected that binding information would be lost. […] Application of this technique to the eluent from an affinity column would permit deconvolution of the library to provide information about the identity of binding complexes.
# With a series of monomers, verification of self-assembly in aqueous solutions, and a separation method in hand, the experimental tools were in place to conduct an affinity selection and amplification experiment. A standard solution of 0.5 mM 8-13 (total concentration 3 mM in “monomer”) was prepared in 10 mM Tris•HCl, 100 mM KCl, 1% DMSO, pH 7.5. To determine the effect of zinc on the observed selection, samples were prepared either with or without 26 MM ZnCl2. Samples were allowed to incubate for one hour to allow an equilibrium mixture of complexes to form, and the latter were then individually added to affinity columns prepared from 30 mg of commercial poly(dT)-cellulose resin (Pharmacia Biotech) preincubated with one A260 unit (approximately 7 nmol) of oligo (dA)12-18(Oligo (dA)12-18 as obtained from Pharmacia Biotech is a mixture of homopolymeric, single-stranded DNA of length 12 to 18) in 10 mM Tris•HCl, 100 mM KCl, pH 7.5 for formation of double-stranded DNA (giving an approximate, average complex:base pair ratio of 85:1). Following a two-hour incubation of the libraries on the resin, solutions were eluted, lyophilized, and derivatized as described above.
# [2] = system: oligo (dA•dT); assay: Affinity selection of amine/salicylaldehyde/Zn2+ library on DNA-cellulose resin, HPLC of derivatized amines in initial elution; conditions: 82 μM salicylaldehyde, 164 μM each amine
# Experimental: For each sample, 15 mg oligo(dT) cellulose was weighed into a 2 ml Bio-Rad BIOSPIN™ polypropylene chromatography column equipped with a glass frit. The resin was then taken up in 750 μl HEPES buffer (10 mM HEPES, 100 mM KC1, pH 6.8). 0.5 A(260) units of oligo(dA) were then added in 50 μl H2O and allowed to incubate on the resin for one hour at ambient temperature prior to the addition of library samples. During this pre-incubation period, as well as throughout the remainder of the experiments, gentle agitation was provided by rotating the samples on a Barnstead-Thermolyne LAB QUAKE™ rotary shaker. In a similar manner, 15 mg of unfunctionalized cellulose for each control experiment was allowed to soak in 800 μl HEPES buffer at ambient temperature for one hour prior to the addition of library samples.
# As one skilled in the are will note, the complexes shown above represent only a subset of the complexes that would be present in this equilibrium. Samples were prepared in triplicate from stock solutions as indicated in Table 1 to provide a total volume of 450 μl. An identical set of samples was prepared for control experiments. In each case, libraries were allowed to incubate at ambient temperature for one hour prior to addition to the DNA-cellulose or control cellulose resin. Additional sets of library samples were prepared according to lines C and D of Table 1 for control experiments conducted in the absence of DNA-cellulose or unfunctionalized cellulose resin.
# Following the pre-incubation period, each sample was added to either a DNA-cellulose or unfunctionalized cellulose column as appropriate. These samples were then allowed to incubate on the resin with gentle agitation at ambient temperature for six hours. Solutions were then eluted from the resin, frozen, and lyophilized prior to derivatization and analysis as described below. […]
# In order to separate and identify as many constituents of each sample as possible, a minimum of two HPLC elutions were performed for each sample. […] Elutions were monitored at 230 nm. […]
# [3] = system: single-stranded oligo(dT)-cellulose; assay: Control selection of salicylaldimine library on single-stranded oligo(dT)-cellulose; conditions: conditions identical to double-stranded experiment
# [4] = Control selection of salicylaldimine library on cellulose alone; conditions: conditions identical to double-stranded experiment
# [5] = 41 μM Zn2+, normalized to zinc-free samples
structure (smiles),measurement,setting,value
Oc1ccccc1/C=N/CCc1ccccn1 [monomer 12],derivatized monomer eluted in the presence of zinc versus absence of zinc,"[1]; 0.5 mM each of 8-13, with or without 26 MM ZnCl2",twice as much
"CN1CCCC1CCN (stereo not drawn) [Amine 4, N-methyl 2-aminoethyl pyrrolidine]",amount retained on the column at higher Zn2+ versus 41 μM Zn2+,[2]; 82 μM Zn2+,significant reduction in the amount of 4 retained
same,reduction in the amount of derivatized amine in initial elution (in words),[2]; [5],significant reduction
CN1CCCC1CC/N=C/c1ccccc1O (stereo not drawn) [monomer 9],"retention on oligo(dT)-cellulose, presence versus absence of zinc",[3],to the same extent
same,retention on the affinity column in the presence of zinc,[1],most strongly retained
same,"retention on cellulose, presence versus absence of zinc",[4],to the same extent
Oc1ccccc1/C=N/CC1CCCO1 (stereo not drawn) [monomer 11],retention on the affinity column in the presence of zinc,[1],most strongly retained
same,"retention on cellulose, presence versus absence of zinc",[4],more strongly retained
"NCCCO [Amine 6, 3-hydroxypropylamine]",reduction in the amount of derivatized amine in initial elution,[2]; [5],> 50%

# From patent US20020160413A1, “COMBINATORIAL LIBRARIES” (priority 1998, published 2002)
